PubChem BioAssay (NCI)
Values joined by “and” are separate entries in the source; they are usually repeats but may differ in a detail not shown here. Identical values can stand only once.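 Protocol summary: plate cells (96-well), add compound at 5 concentrations, incubate 48 h, interpolate endpoints linearly. The concentration for 50% growth inhibition is given as GI50. At the TGI there is no net growth.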

What was measured:
Test in all cases: inhibition of tumour cell growth, NCI panel, 48 h
MDA-MB-435 = test system: MDA-MB-435
OVCAR-3 ovarian = test system: OVCAR-3 ovarian
A549 NSCLC = test system: A549 NSCLC
OVCAR-8 ovarian = test system: OVCAR-8 ovarian
SR leukemia = test system: SR leukemia
A498 renal = test system: A498 renal
786-0 renal = test system: 786-0 renal
MDA-MB-231 breast = test system: MDA-MB-231 breast

O=C1c2ccc3c4c(ccc(c24)C(=O)N1CCCNCc1ccccc1Cl)C(=O)N(CCCNCc1ccccc1Cl)C3=O
GI50 (MDA-MB-435): 0.12 µM
TGI (MDA-MB-435): 0.332 µM
GI50 (OVCAR-3 ovarian): 0.132 µM
TGI (OVCAR-3 ovarian): 0.345 µM
GI50 (A549 NSCLC): 0.23 µM
TGI (A549 NSCLC): 0.833 µM
GI50 (OVCAR-8 ovarian): 0.148 µM
TGI (OVCAR-8 ovarian): 0.533 µM
GI50 (SR leukemia): 0.151 µM
TGI (SR leukemia): 6.68 µM
GI50 (A498 renal): 0.712 µM
TGI (A498 renal): 1.43 µM
GI50 (786-0 renal): 0.61 µM
TGI (786-0 renal): 1.43 µM
GI50 (MDA-MB-231 breast): 0.25 µM
TGI (MDA-MB-231 breast): 2.2 µM

CCSc1nc(SCC)c2c(-c3ccc(OC)c(OC)c3)c(C#N)c(SCC)nc2n1
GI50 (MDA-MB-435): 18.7 µM
TGI (MDA-MB-435): 57.8 µM
GI50 (OVCAR-3 ovarian): 10.5 µM
TGI (OVCAR-3 ovarian): 32.5 µM
GI50 (A549 NSCLC): 30.4 µM
TGI (A549 NSCLC): 79.1 µM
GI50 (OVCAR-8 ovarian): 43.8 µM
TGI (OVCAR-8 ovarian): > 100 µM
GI50 (SR leukemia): 26.5 µM
TGI (SR leukemia): > 100 µM
GI50 (786-0 renal): 18.7 µM
TGI (786-0 renal): 59.1 µM
GI50 (MDA-MB-231 breast): 13 µM
TGI (MDA-MB-231 breast): 42 µM

COc1ccc(Cl)c(Nc2nc3ccccc3nc2NS(=O)(=O)c2cccc(NC(=O)C(C)(C)N)c2)c1
GI50 (MDA-MB-435): 11.5 µM and > 10 µM
TGI (MDA-MB-435): 25.2 µM and > 10 µM
GI50 (OVCAR-3 ovarian): 7.68 µM and 4.12 µM
TGI (OVCAR-3 ovarian): 21.3 µM and > 10 µM
GI50 (A549 NSCLC): 7.7 µM and > 10 µM
TGI (A549 NSCLC): 21.4 µM and > 10 µM
GI50 (OVCAR-8 ovarian): 14 µM and > 10 µM
TGI (OVCAR-8 ovarian): 32.8 µM and > 10 µM
GI50 (SR leukemia): 10.2 µM and > 10 µM
TGI (SR leukemia): 28.1 µM and > 10 µM
GI50 (A498 renal): 3.1 µM and 3.23 µM
TGI (A498 renal): 13.6 µM and > 10 µM
GI50 (786-0 renal): 6.19 µM and 5.38 µM
TGI (786-0 renal): 19.8 µM and > 10 µM
GI50 (MDA-MB-231 breast): 14.5 µM and > 10 µM
TGI (MDA-MB-231 breast): 32.6 µM and > 10 µM

O=C(Nc1ccc(Oc2cccc(F)c2)c(Cl)c1)c1cnccn1
GI50 (MDA-MB-435): 0.149 µM
TGI (MDA-MB-435): 0.683 µM
GI50 (OVCAR-3 ovarian): 1 µM
TGI (OVCAR-3 ovarian): 5.15 µM
GI50 (A549 NSCLC): 0.938 µM
TGI (A549 NSCLC): > 50 µM
GI50 (OVCAR-8 ovarian): 2.51 µM
TGI (OVCAR-8 ovarian): > 50 µM
GI50 (SR leukemia): 0.242 µM
TGI (SR leukemia): > 50 µM
GI50 (A498 renal): 3.77 µM
TGI (A498 renal): 43.3 µM
GI50 (786-0 renal): 3.03 µM
TGI (786-0 renal): > 50 µM
GI50 (MDA-MB-231 breast): 3.28 µM
TGI (MDA-MB-231 breast): > 50 µM

COc1ccc(/C=C(\C(=O)NCc2cccnc2)S(=O)(=O)c2ccccc2)cc1OC
GI50 (MDA-MB-435): 2.74 µM
TGI (MDA-MB-435): 10.9 µM
GI50 (OVCAR-3 ovarian): 3.22 µM
TGI (OVCAR-3 ovarian): 11.4 µM
GI50 (A549 NSCLC): 2.86 µM
TGI (A549 NSCLC): 13.4 µM
GI50 (OVCAR-8 ovarian): 3.84 µM
TGI (OVCAR-8 ovarian): 25.1 µM
GI50 (SR leukemia): 3.3 µM
TGI (SR leukemia): > 100 µM
GI50 (A498 renal): 2.78 µM
TGI (A498 renal): 8 µM
GI50 (786-0 renal): 2.86 µM
TGI (786-0 renal): 8.92 µM
GI50 (MDA-MB-231 breast): 2.93 µM
TGI (MDA-MB-231 breast): 10.6 µM

CC1=C(C(=O)N(C)c2ccc(Cl)c(C(=O)OC(C)C)c2)SCCO1
TGI (MDA-MB-435): > 100 µM
TGI (OVCAR-3 ovarian): > 100 µM
TGI (A549 NSCLC): > 100 µM
TGI (OVCAR-8 ovarian): > 100 µM
TGI (A498 renal): > 100 µM
TGI (786-0 renal): > 100 µM
TGI (MDA-MB-231 breast): > 100 µM

OCCn1cnc2c(SCc3ccccc3)ncnc21
TGI (MDA-MB-435): > 100 µM
TGI (OVCAR-3 ovarian): > 100 µM
TGI (A549 NSCLC): > 100 µM
TGI (OVCAR-8 ovarian): > 100 µM
TGI (SR leukemia): > 100 µM
TGI (A498 renal): > 100 µM
TGI (786-0 renal): > 100 µM
TGI (MDA-MB-231 breast): > 100 µM

Cc1cnc(CNC(=O)c2c(=O)c3ccc(N4CCCN(C)CC4)nc3n3c2sc2ccccc23)cn1
GI50 (MDA-MB-435): 5.4 µM
TGI (MDA-MB-435): 21.3 µM
GI50 (OVCAR-3 ovarian): 7.2 µM
TGI (OVCAR-3 ovarian): 22 µM
GI50 (A549 NSCLC): 0.33 µM
TGI (A549 NSCLC): 7.23 µM
GI50 (OVCAR-8 ovarian): 1.09 µM
TGI (OVCAR-8 ovarian): 21.2 µM
GI50 (SR leukemia): 0.0311 µM
TGI (SR leukemia): > 34.3 µM
GI50 (A498 renal): 12.2 µM
TGI (A498 renal): 25.2 µM
GI50 (786-0 renal): 6.17 µM
TGI (786-0 renal): 22.7 µM
GI50 (MDA-MB-231 breast): 2.79 µM
TGI (MDA-MB-231 breast): 8.36 µM

NC(=O)c1ccc(-c2nc(-c3ccc4c(c3)OCO4)c(-c3ccccn3)[nH]2)cc1
GI50 (MDA-MB-435): > 25 µM and 38.6 µM
TGI (MDA-MB-435): > 100 µM
GI50 (OVCAR-3 ovarian): > 25 µM and 35.3 µM
TGI (OVCAR-3 ovarian): > 100 µM
GI50 (A549 NSCLC): > 25 µM and 27.7 µM
TGI (A549 NSCLC): > 100 µM
GI50 (OVCAR-8 ovarian): > 25 µM and 34.1 µM
TGI (OVCAR-8 ovarian): > 100 µM
GI50 (SR leukemia): > 25 µM and 20.4 µM
TGI (SR leukemia): > 100 µM
GI50 (A498 renal): > 25 µM and 27.2 µM
TGI (A498 renal): > 79.3 µM
GI50 (786-0 renal): > 25 µM and 36.4 µM
TGI (786-0 renal): > 100 µM
GI50 (MDA-MB-231 breast): 21.3 µM and 14.8 µM
TGI (MDA-MB-231 breast): > 25 µM and 59.1 µM

COc1cc(OC)c(C(=O)/C=C/c2cccc(C#N)c2)c(OC)c1
GI50 (MDA-MB-435): 1.42 µM
TGI (MDA-MB-435): 6.38 µM
GI50 (OVCAR-3 ovarian): 1.75 µM
TGI (OVCAR-3 ovarian): 6.74 µM
GI50 (A549 NSCLC): 1.43 µM
TGI (A549 NSCLC): 6.1 µM
GI50 (OVCAR-8 ovarian): 1.47 µM
TGI (OVCAR-8 ovarian): 6.51 µM
GI50 (SR leukemia): 0.241 µM
TGI (SR leukemia): > 50 µM
GI50 (A498 renal): 1.24 µM
TGI (A498 renal): 3.3 µM
GI50 (786-0 renal): 1.31 µM
TGI (786-0 renal): 5.52 µM
GI50 (MDA-MB-231 breast): 2 µM
TGI (MDA-MB-231 breast): 8.08 µM

Oc1c(Cl)c(Cl)c(O)c2c1CCCC2
TGI (MDA-MB-435): 34.1 µM
TGI (A549 NSCLC): 72.6 µM
TGI (OVCAR-8 ovarian): 46 µM
TGI (A498 renal): 33.1 µM
TGI (786-0 renal): 3.94 µM
TGI (MDA-MB-231 breast): 41.9 µM

CN(C)C(=O)c1cnc2oc3ccc(O)cc3c2c1-c1ccccc1
GI50 (MDA-MB-435): > 25 µM
TGI (MDA-MB-435): > 25 µM
GI50 (OVCAR-3 ovarian): > 25 µM
TGI (OVCAR-3 ovarian): > 25 µM
GI50 (A549 NSCLC): > 25 µM
TGI (A549 NSCLC): > 25 µM
GI50 (OVCAR-8 ovarian): > 25 µM
TGI (OVCAR-8 ovarian): > 25 µM
GI50 (SR leukemia): 3.78 µM
TGI (SR leukemia): > 25 µM
GI50 (786-0 renal): > 25 µM
TGI (786-0 renal): > 25 µM

CCC[CH2][Sn]1([CH2]CCC)[O]C2C(CO)OC(n3ccc(N)nc3=O)C2[O]1 (stereo not given)
GI50 (MDA-MB-435): 1.41 µM
TGI (MDA-MB-435): 2.88 µM
GI50 (OVCAR-3 ovarian): 1.58 µM
TGI (OVCAR-3 ovarian): 2.94 µM
GI50 (A549 NSCLC): 2.38 µM
TGI (A549 NSCLC): 4.73 µM
GI50 (OVCAR-8 ovarian): 1.66 µM
TGI (OVCAR-8 ovarian): 3.11 µM
GI50 (SR leukemia): 0.549 µM
TGI (SR leukemia): > 100 µM
GI50 (A498 renal): 0.271 µM
TGI (A498 renal): 1.17 µM
GI50 (786-0 renal): 1.54 µM
TGI (786-0 renal): 2.88 µM
GI50 (MDA-MB-231 breast): 0.818 µM
TGI (MDA-MB-231 breast): 2.19 µM

NC(=O)Nc1cc(-c2cccc(F)c2)sc1C(=O)N[C@H]1CCCNC1
GI50 (MDA-MB-435): 0.069 µM and 0.181 µM
TGI (MDA-MB-435): 0.371 µM and 0.668 µM
GI50 (OVCAR-3 ovarian): 0.168 µM and 0.55 µM
TGI (OVCAR-3 ovarian): 4.56 µM and 5.17 µM
GI50 (A549 NSCLC): 0.188 µM and 0.356 µM
TGI (A549 NSCLC): 4.48 µM and 2.12 µM
GI50 (OVCAR-8 ovarian): 0.131 µM and 0.318 µM
TGI (OVCAR-8 ovarian): > 3.36 µM and 2.04 µM
GI50 (SR leukemia): 0.0312 µM and 0.14 µM
GI50 (A498 renal): 0.0173 µM and 0.0385 µM
TGI (A498 renal): 0.0984 µM and 0.194 µM
GI50 (786-0 renal): 0.0717 µM and 0.166 µM
TGI (786-0 renal): 1.35 µM and 0.634 µM
GI50 (MDA-MB-231 breast): 0.305 µM and 0.424 µM
TGI (MDA-MB-231 breast): 2.82 µM and 2.33 µM

COc1cc([N+](=O)[O-])c(OC)cc1-c1nc2sccn2c1/C=N/N=C(N)N
GI50 (MDA-MB-435): 15.5 µM
TGI (MDA-MB-435): 52.3 µM
GI50 (OVCAR-3 ovarian): 14.6 µM
TGI (OVCAR-3 ovarian): 66.5 µM
GI50 (A549 NSCLC): 20.8 µM
TGI (A549 NSCLC): 68.7 µM
GI50 (OVCAR-8 ovarian): 17.3 µM
TGI (OVCAR-8 ovarian): 59.8 µM
GI50 (A498 renal): 27.4 µM
TGI (A498 renal): 66.5 µM
GI50 (786-0 renal): 18 µM
TGI (786-0 renal): 49.6 µM
GI50 (MDA-MB-231 breast): 24.2 µM
TGI (MDA-MB-231 breast): 69.5 µM

CN(C)c1ccc(C(=NO)c2ccc(N(C)C)cc2)cc1
GI50 (MDA-MB-435): 0.277 µM
TGI (MDA-MB-435): 1.92 µM
GI50 (OVCAR-3 ovarian): 2.22 µM
TGI (OVCAR-3 ovarian): 10.1 µM
GI50 (A549 NSCLC): 3.34 µM
TGI (A549 NSCLC): > 100 µM
GI50 (OVCAR-8 ovarian): 3.9 µM
TGI (OVCAR-8 ovarian): > 100 µM
GI50 (SR leukemia): 0.32 µM
TGI (SR leukemia): > 100 µM
GI50 (A498 renal): 2.57 µM
TGI (A498 renal): > 100 µM
GI50 (786-0 renal): 7.49 µM
TGI (786-0 renal): > 100 µM
GI50 (MDA-MB-231 breast): 4.85 µM
TGI (MDA-MB-231 breast): > 100 µM
